Reference: patent US4491631A, “Assay method for lipid component, assay composition, and process for production of enzyme used therefor” (Toyo Jozo Kabushiki Kaisha, priority 1981, dated 1985)

Molecular target: T1, 3-hydroxyacyl-CoA dehydrogenase activity of multi-active enzyme (Pseudomonas fragi, UniProt P28793)
T1 construct: Crude enzyme was prepared from microbial cells of Pseudomonas fragi B-0771; endogenous in cells; host or cells: Pseudomonas fragi B-0771 FERM-P No. 5701 (enzyme extracted with lysozyme and purified from its own cells, not recombinant)
Experiment: Effect of surface active agents on 3-hydroxyacyl-CoA dehydrogenase activity
Assay type: biochemical, Pseudomonas fragi B-0771
Conditions: 0.1% surface active agent; control 100; 10 min
Description: (§1) The enzyme solution (50 μl) was added to the above reaction mixture, which was preincubated at 27° C. for 2 minutes, and the mixture was incubated at 37° C. for 10 minutes. 0.5% sodium dodecyl sulfate (2.0 ml) was added to stop the reaction and the absorbency was measured at 550 nm (ΔA550) One unit (1 U) is defined as the amount of enzyme which generates 1 μmole of reduced NAD in one minute. Enzyme activity is defined by the following equation: [formula] (c) Assay method of 3-ketoacyl-CoA thiolase activity:
(10) Effect of surface active agents:
The effect of surface active agents was measured on 3-hydroxyacyl-CoA dehydrogenase activity.

T1 sequence (P28793 whole entry): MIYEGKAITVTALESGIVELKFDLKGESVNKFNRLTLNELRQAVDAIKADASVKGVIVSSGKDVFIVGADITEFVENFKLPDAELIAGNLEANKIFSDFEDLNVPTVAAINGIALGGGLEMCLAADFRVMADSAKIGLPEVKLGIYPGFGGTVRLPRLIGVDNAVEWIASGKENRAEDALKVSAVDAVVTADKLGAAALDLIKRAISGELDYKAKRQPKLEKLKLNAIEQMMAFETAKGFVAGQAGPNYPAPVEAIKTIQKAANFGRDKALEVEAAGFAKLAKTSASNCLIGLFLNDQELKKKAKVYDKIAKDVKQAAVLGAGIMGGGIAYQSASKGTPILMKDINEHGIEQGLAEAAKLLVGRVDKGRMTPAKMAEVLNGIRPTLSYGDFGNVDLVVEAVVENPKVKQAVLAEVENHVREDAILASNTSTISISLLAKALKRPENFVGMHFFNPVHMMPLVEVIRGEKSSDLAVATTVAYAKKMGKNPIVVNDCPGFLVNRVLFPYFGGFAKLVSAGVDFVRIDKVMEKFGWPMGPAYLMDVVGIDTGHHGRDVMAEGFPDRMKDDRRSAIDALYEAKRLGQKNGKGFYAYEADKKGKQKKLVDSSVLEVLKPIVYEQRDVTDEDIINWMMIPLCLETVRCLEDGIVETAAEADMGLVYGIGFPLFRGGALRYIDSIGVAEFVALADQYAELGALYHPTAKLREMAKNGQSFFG
T1 sequence (P28790 whole entry partner): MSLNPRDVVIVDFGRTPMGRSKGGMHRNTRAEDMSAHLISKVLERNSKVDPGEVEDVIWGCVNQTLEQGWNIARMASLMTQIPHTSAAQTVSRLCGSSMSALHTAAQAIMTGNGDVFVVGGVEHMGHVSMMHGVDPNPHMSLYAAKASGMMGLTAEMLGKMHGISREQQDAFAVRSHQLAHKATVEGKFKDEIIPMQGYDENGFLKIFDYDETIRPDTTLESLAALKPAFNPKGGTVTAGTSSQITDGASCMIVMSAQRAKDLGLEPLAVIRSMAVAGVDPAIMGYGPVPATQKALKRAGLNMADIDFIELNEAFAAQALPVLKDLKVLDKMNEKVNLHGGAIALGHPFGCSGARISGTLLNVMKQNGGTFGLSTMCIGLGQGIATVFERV

Row | Compound | Relative activity [%]
1 | Triton X-100 | 96
2 | laurylbenzene sulfonate | 0

Same assay, conditions: 10 min; 0.1% surface active agent; control 100; read-out: Relative activity

Row | Compound | activity at 0.1 % [%]
3 | CCCCCCCCCCCCCCCC[N+](C)(C)C [cetyltrimethylammonium chloride] | 0
4 | C[C@H](CCC(=O)O)[C@H]1CC[C@H]2[C@@H]3CC[C@@H]4C[C@H](O)CC[C@]4(C)[C@H]3C[C@H](O)[C@]12C [sodium deoxycholate] | 2
5 | CCCCCCCCCCCCOS(=O)(=O)[O-].[Na+] [sodium lauryl sulfate] | 0

Molecular target: T1, 3-hydroxyacyl-CoA dehydrogenase activity of multi-active enzyme
Experiment: Substrate specificity of 3-hydroxyacyl-CoA dehydrogenase activity
Assay type: biochemical, Pseudomonas fragi B-0771
Conditions: 3-hydroxyacyl-CoA used as substrate of 3-hydroxyacyl-CoA dehydrogenase activity
Description: as §1
3-hydroxyacyl-CoA dehydrogenase activity was measured by using the following embodiments of 3-hydroxyacyl-CoA: […]

Row | Compound | Relative activity [%]
6 | CCCCCCCCCCCCCCCCCC(O)CC(=O)SCCNC(=O)CCNC(=O)[C@H](O)C(C)(C)COP(=O)(O)OP(=O)(O)OC[C@H]1O[C@@H](n2cnc3c(N)ncnc32)[C@H](O)[C@@H]1OP(=O)(O)O (some centres unmarked) [3-hydroxyarachidoyl-CoA] | 9.5
7 | CCCC(O)CC(=O)SCCNC(=O)CCNC(=O)[C@H](O)C(C)(C)COP(=O)(O)OP(=O)(O)OC[C@H]1O[C@@H](n2cnc3c(N)ncnc32)[C@H](O)[C@@H]1OP(=O)(O)O (some centres unmarked) [3-hydroxycaproyl-CoA] | 56.5
8 | CCCCCCCC(O)CC(=O)SCCNC(=O)CCNC(=O)[C@H](O)C(C)(C)COP(=O)(O)OP(=O)(O)OC[C@H]1O[C@@H](n2cnc3c(N)ncnc32)[C@H](O)[C@@H]1OP(=O)(O)O (some centres unmarked) [3-hydroxycapryl-CoA] | 99.0
9 | CCCCCC(O)CC(=O)SCCNC(=O)CCNC(=O)[C@H](O)C(C)(C)COP(=O)(O)OP(=O)(O)OC[C@H]1O[C@@H](n2cnc3c(N)ncnc32)[C@H](O)[C@@H]1OP(=O)(O)O (some centres unmarked) [3-hydroxycaprylyl-CoA] | 88.1
10 | CCCCCCCCCC(O)CC(=O)SCCNC(=O)CCNC(=O)[C@H](O)C(C)(C)COP(=O)(O)OP(=O)(O)OC[C@H]1O[C@@H](n2cnc3c(N)ncnc32)[C@H](O)[C@@H]1OP(=O)(O)O (some centres unmarked) [3-hydroxylauryl-CoA] | 100.0
11 | CC/C=C\C/C=C\C/C=C\CCCCCC(O)CC(=O)SCCNC(=O)CCNC(=O)[C@H](O)C(C)(C)COP(=O)(O)OP(=O)(O)OC[C@H]1O[C@@H](n2cnc3c(N)ncnc32)[C@H](O)[C@@H]1OP(=O)(O)O (some centres unmarked) [3-hydroxylinolenyl-CoA] | 99.0
12 | CCCCCCCCCCCC(O)CC(=O)SCCNC(=O)CCNC(=O)[C@H](O)C(C)(C)COP(=O)(O)OP(=O)(O)OC[C@H]1O[C@@H](n2cnc3c(N)ncnc32)[C@H](O)[C@@H]1OP(=O)(O)O (some centres unmarked) [3-hydroxymyristoyl-CoA] | 98.0
13 | CCCCCCCC/C=C\CCCCCC(O)CC(=O)SCCNC(=O)CCNC(=O)[C@H](O)C(C)(C)COP(=O)(O)OP(=O)(O)OC[C@H]1O[C@@H](n2cnc3c(N)ncnc32)[C@H](O)[C@@H]1OP(=O)(O)O (some centres unmarked) [3-hydroxyoleyl-CoA] | 57.5
14 | CCCCCCCCCCCCCC(O)CC(=O)SCCNC(=O)CCNC(=O)[C@H](O)C(C)(C)COP(=O)(O)OP(=O)(O)OC[C@H]1O[C@@H](n2cnc3c(N)ncnc32)[C@H](O)[C@@H]1OP(=O)(O)O (some centres unmarked) [3-hydroxypalmitoyl-CoA] | 75.5
15 | CCCCCCCCCCCCCCCC(O)CC(=O)SCCNC(=O)CCNC(=O)[C@H](O)C(C)(C)COP(=O)(O)OP(=O)(O)OC[C@H]1O[C@@H](n2cnc3c(N)ncnc32)[C@H](O)[C@@H]1OP(=O)(O)O (some centres unmarked) [3-hydroxystearyl-CoA] | 30.5

Molecular target: T1, 3-hydroxyacyl-CoA dehydrogenase activity of multi-active enzyme
Experiment: Effect of metal ions on 3-hydroxyacyl-CoA dehydrogenase activity
Assay type: biochemical, Pseudomonas fragi B-0771
Conditions: 1 mM metal ion; control 100; 10 min
Description: as §1
(9) Effect of metal ions:
The effect of metal ions was measured on 3-hydroxyacyl-CoA dehydrogenase activity.

Row | Compound | Relative activity [%]
16 | [Ba+2].[Cl-].[Cl-] [BaCl2] | 106
17 | [Ca+2].[Cl-].[Cl-] [CaCl 2] | 113
18 | [Cl-].[Cl-].[Co+2] [CoCl2] | 34
19 | [Cl][Cu][Cl] [CuCl2] | 12
20 | [Cl-].[Cl-].[Mg+2] [MgCl2] | 113
21 | [Cl][Mn][Cl] [MnCl2] | 32
22 | [Cl][Ni][Cl] [NiCl2] | 95
23 | [Cl-].[Cl-].[Zn+2] [ZnCl2] | 25
